The values below are quoted from earlier work in patent US20250345512A1, “COMBINATION SODIUM-GLUCOSE COTRANSPORTER INHIBITOR (SGLTI) INSULIN THERAPY FOR GLYCEMIC CONTROL IN TYPE 1 DIABETES” (University of Virginia Patent Foundation, priority 2022, published 2025).

Data set [1] deals with T1D. Particulars: versus placebo over 18 weeks; cited from earlier work.
The conditions of data set [2]: 25 mg/day added to experimental AID; 9-14 h outpatient; cited from earlier work.
Data set [3] deals with T1D patients. Also noted: adverse effects, including DKA: reference not given here. Particulars: cited from earlier work.
Data set [4] has as its system T1D patients. Particulars: 200 mg and 400 mg; adults with T1D; cited from earlier work.
Data set [5] has as its system T1D adults. Particulars: pooled analysis of 1575 T1D adults; cited from earlier work.

Consider `Cc1ccc([C@@H]2O[C@H](CO)[C@@H](O)[C@H](O)[C@H]2O)cc1Cc1ccc(-c2ccc(F)cc2)s1` [canagliflozin], for which the “indices of glycemic variability and treatment satisfaction” value in data set [1] is “improved indices of glycemic variability and improvement in treatment satisfaction”.
For the molecule `OC[C@H]1O[C@@H](c2ccc(Cl)c(Cc3ccc(O[C@H]4CCOC4)cc3)c2)[C@H](O)[C@@H](O)[C@@H]1O` [empagliflozin], the “need for pre-meal carbohydrate counting” value in data set [2] is listed as “reduce the need for pre-meal carbohydrate counting”. The adverse effects result in data set [3] (2.5 mg) was “indistinguishable from placebo”. Also, the “adverse effects, including DKA” value in data set [3] (10 mg and 25 mg daily dose) is listed as “two to three fold higher”. Further, the “body weight, systolic blood pressure, and diastolic blood pressure” value in data set [3] (1707 T1D patients, 26 weeks of SGLT2i treatment) was “significant reductions”. For the same molecule, in data set [3] (EASE trials), the “hemoglobin A1c and hypoglycemia” value is “improvements in hemoglobin Ale without increase in hypoglycemia”.
`CCOc1ccc(Cc2cc([C@@H]3O[C@H](SC)[C@@H](O)[C@H](O)[C@H]3O)ccc2Cl)cc1` [sotagliflozin]: the “glycemic control and weight” value in data set [4] was “improved glycemic control and weight”. Further, the “short- and long-term renal hemodynamic changes” value in data set [5] is recorded as “reductions in urine albumin:creatinine”.
